Where no end group is shown, it is not given here.

Holding throughout (assay): biochemical
Holding throughout (format): binding

In assay [1] the target is DRB4*0101 (Homo sapiens, UniProt P01903+P13762, G164S).
In assay [2] the target is DRB3*0101 (Homo sapiens, UniProt P01903+P79483).
Assay [3] deals with DRB5*0101 (Homo sapiens, UniProt P01903+Q30154).

The IC50 is the concentration that gives 50% inhibition. A high value points to lower potency. Consider `CC(C)[C@H](NC(=O)[C@@H]1CCCN1C(=O)[C@@H](NC(=O)[C@H](C)NC(=O)[C@H](CO)NC(=O)[C@@H](N)CS)C(C)C)C(=O)N[C@@H](Cc1c[nH]cn1)C(=O)N[C@@H](Cc1c[nH]c2ccccc12)C(=O)N[C@H](C(=O)N1CCC[C@H]1C(=O)N[C@H](C(=O)N[C@@H](CO)C(=O)N[C@@H](CCCNC(=N)N)C(=O)N[C@H](C(=O)N[C@H](C(=O)N[C@@H](Cc1c[nH]c2ccccc12)C(=O)O)[C@@H](C)O)[C@@H](C)O)[C@@H](C)O)C(C)C` [NS5 780-795], for which the IC50 is 168 nM in assay [1], 2340 nM in assay [2] and 1950 nM in assay [3].

Regarding LGSQEGAMHTALTGA [Envelope 251-265], the figures for the IC50 in assay [1], in assay [2] and in assay [3] were 7210 nM, 5590 nM and 722 nM, respectively.

As to `CC[C@H](C)[C@H](N)C(=O)NCC(=O)N[C@@H](CCCCN)C(=O)N[C@@H](CCSC)C(=O)N[C@@H](Cc1ccccc1)C(=O)N[C@@H](CCC(=O)O)C(=O)N[C@@H](C)C(=O)N[C@H](C(=O)N[C@@H](C)C(=O)N[C@@H](CCCNC(=N)N)C(=O)NCC(=O)N[C@@H](C)C(=O)N[C@@H](CCCNC(=N)N)C(=O)N[C@@H](CCCNC(=N)N)C(=O)N[C@@H](CCSC)C(=O)O)[C@@H](C)O` [Envelope 396-410], the values for the IC50 in assay [1], in assay [2] and in assay [3] were 3610 nM, 424 nM and 27 nM, respectively.

With GTILVKVEYKGEDAP [Envelope 316-330], the IC50 in assay [1] was 6030 nM; in assay [2], 5290 nM; in assay [3], 5260 nM.

For the compound `CC[C@H](C)[C@H](NC(=O)[C@@H](NC(=O)[C@H](CCCNC(=N)N)NC(=O)[C@H](CCC(=O)O)NC(=O)[C@@H]1CCCN1C(=O)CNC(=O)[C@H](CC(=O)O)NC(=O)[C@@H](NC(=O)[C@H](CC(C)C)NC(=O)[C@@H](NC(=O)[C@@H](NC(=O)[C@@H]1CCCN1C(=O)[C@H](CCCCN)NC(=O)[C@H](CC(C)C)NC(=O)[C@@H](N)CS)C(C)C)[C@@H](C)CC)[C@@H](C)O)C(C)C)C(=O)O` [NS3 429-443], the IC50 amounted to 1210 nM in assay [1], 5.7 nM in assay [2] and 13200 nM in assay [3].

Take `CC[C@H](C)[C@H](NC(=O)CNC(=O)[C@@H](NC(=O)[C@@H](NC(=O)[C@@H](NC(=O)[C@H](CC(N)=O)NC(=O)[C@H](CO)NC(=O)[C@H](CCC(=O)O)NC(=O)CNC(=O)[C@H](Cc1ccccc1)NC(=O)[C@@H]1CCCN1C(=O)[C@@H]1CCCN1C(=O)[C@H](CCC(=O)O)NC(=O)[C@H](C)NC(=O)[C@@H](N)CCC(=O)O)[C@@H](C)CC)C(C)C)[C@@H](C)CC)C(=O)O` [Envelope 366-380]: the IC50 in assay [1] amounted to 3810 nM; in assay [2], 3240 nM; in assay [3], 12500 nM.

As to MRCVGVGNRDFVEGL [Envelope 1-15], the IC50 in assay [1] worked out at 3770 nM; in assay [2] it was 2840 nM; in assay [3], 4830 nM.

Consider `CC[C@H](C)[C@H](NC(=O)[C@H](CCC(=O)O)NC(=O)CNC(=O)[C@H](CCCNC(=N)N)NC(=O)[C@H](CCCCN)NC(=O)[C@@H](N)CC(C)C)C(=O)N[C@H](C(=O)N[C@@H](Cc1c[nH]cn1)C(=O)N[C@@H](Cc1c[nH]cn1)C(=O)N[C@@H](C)C(=O)N[C@H](C(=O)N[C@@H](CO)C(=O)N[C@@H](CCCNC(=N)N)C(=O)NCC(=O)N[C@@H](CO)C(=O)N[C@@H](C)C(=O)N[C@@H](CCCCN)C(=O)O)C(C)C)[C@@H](C)O` [NS5 45-61], for which the IC50 worked out at 8.5 nM in assay [1], 7500 nM in assay [2] and 449 nM in assay [3].

In the case of `CC(C)C[C@H](NC(=O)[C@H](CCCCN)NC(=O)CNC(=O)[C@H](CO)NC(=O)[C@@H](NC(=O)[C@@H](NC(=O)[C@@H](NC(=O)[C@@H](NC(=O)[C@H](CCCNC(=N)N)NC(=O)[C@H](CC(C)C)NC(=O)[C@H](CO)NC(=O)[C@@H]1CCCN1C(=O)CNC(=O)[C@H](CCCNC(=N)N)NC(=O)[C@@H](N)[C@@H](C)O)[C@@H](C)O)[C@@H](C)O)[C@@H](C)O)C(C)C)C(=O)O` [NS1 293-307], the figures for the IC50 in assay [1], in assay [2] and in assay [3] were 793 nM, 2280 nM and 2610 nM, respectively.

Turning to `CC[C@H](C)[C@H](NC(=O)[C@H](C)NC(=O)CNC(=O)[C@@H](NC(=O)[C@H](CCC(=O)O)NC(=O)CN)[C@@H](C)CC)C(=O)N[C@@H](C)C(=O)N[C@@H](CC(C)C)C(=O)N[C@@H](CC(=O)O)C(=O)N[C@@H](Cc1ccccc1)C(=O)N[C@@H](CCCCN)C(=O)N1CCC[C@H]1C(=O)NCC(=O)N[C@H](C(=O)N[C@@H](CO)C(=O)O)[C@@H](C)O` [NS3 121-135], the IC50 in assay [1] worked out at 40 nM; in assay [2], 2210 nM; in assay [3], 11900 nM.

In the case of `CC[C@H](C)[C@H](NC(=O)[C@H](Cc1ccc(O)cc1)NC(=O)CNC(=O)[C@H](CCCNC(=N)N)NC(=O)[C@H](C)N)C(=O)N[C@@H](CO)C(=O)N[C@H](C(=O)N[C@@H](CCCNC(=N)N)C(=O)N[C@H](C(=O)NCC(=O)N[C@@H](CCSC)C(=O)NCC(=O)N[C@@H](CCC(=O)O)C(=O)N[C@@H](C)C(=O)N[C@@H](C)C(=O)O)C(C)C)[C@@H](C)O` [NS3 297-311], the IC50 in assay [1] was 7230 nM; in assay [2] it was 8650 nM; in assay [3], 3450 nM.

`CC[C@H](C)[C@H](NC(=O)[C@H](CCSC)NC(=O)[C@H](CC(=O)O)NC(=O)[C@H](CO)NC(=O)[C@H](CCC(=O)O)NC(=O)[C@H](CC(C)C)NC(=O)[C@@H](NC(=O)CNC(=O)[C@H](CC(N)=O)NC(=O)[C@@H](N)CO)C(C)C)C(=O)N[C@H](C(=O)N1CCC[C@H]1C(=O)N[C@@H](CCCCN)C(=O)N[C@@H](CO)C(=O)N[C@@H](CC(C)C)C(=O)O)[C@@H](C)CC` [NS1 233-247]: the results for the IC50 in assay [1], in assay [2] and in assay [3] were 3870 nM, 159 nM and 4070 nM, respectively.

For the compound `CC[C@H](C)[C@H](NC(=O)[C@H](CCC(N)=O)NC(=O)[C@@H](N)CCCCN)C(=O)N[C@@H](C)C(=O)N[C@@H](CC(N)=O)C(=O)N[C@@H](CCC(=O)O)C(=O)N[C@@H](CC(C)C)C(=O)N[C@@H](CC(N)=O)C(=O)N[C@@H](Cc1ccc(O)cc1)C(=O)N[C@H](C(=O)N[C@@H](CC(C)C)C(=O)N[C@@H](Cc1c[nH]c2ccccc12)C(=O)N[C@@H](CCC(=O)O)C(=O)N[C@@H](CC(N)=O)C(=O)N[C@@H](CC(N)=O)C(=O)O)[C@@H](C)CC` [NS1 69-83], the IC50 in assay [1] was 608 nM; in assay [2] it was 50 nM; in assay [3], 2380 nM.

As to `CC[C@H](C)[C@H](NC(=O)[C@H](CC(C)C)NC(=O)[C@H](CCC(=O)O)NC(=O)[C@@H](N)Cc1c[nH]cn1)C(=O)N[C@@H](CCSC)C(=O)N[C@@H](CCCCN)C(=O)N[C@@H](CC(=O)O)C(=O)NCC(=O)N[C@@H](CCCNC(=N)N)C(=O)N[C@@H](CCCCN)C(=O)N[C@@H](CC(C)C)C(=O)N[C@H](C(=O)N[C@H](C(=O)N1CCC[C@H]1C(=O)N[C@@H](CS)C(=O)N[C@@H](CCCNC(=N)N)C(=O)O)C(C)C)C(C)C` [NS5 714-729], the IC50 was determined as 4020 nM in assay [1] and 245 nM in assay [3].

In the case of `CC[C@H](C)[C@H](NC(=O)[C@@H]1CCCN1C(=O)[C@H](CCC(=O)O)NC(=O)[C@H](CC(C)C)NC(=O)[C@@H](N)CS)C(=O)N[C@@H](CCC(=O)O)C(=O)NCC(=O)N[C@@H](CCCCN)C(=O)N[C@H](C(=O)N[C@H](C(=O)N[C@@H](CCC(N)=O)C(=O)N[C@@H](Cc1ccc(O)cc1)C(=O)N[C@@H](CCC(=O)O)C(=O)N[C@@H](CC(N)=O)C(=O)N[C@@H](CC(C)C)C(=O)O)C(C)C)C(C)C` [Envelope 121-135], the IC50 was 1100 nM in assay [1] and 13300 nM in assay [3].

Source of the values: paper PMC3794980, “Identification of Conserved and HLA Promiscuous DENV3 T-Cell Epitopes” (PLoS Neglected Tropical Diseases, 2013).
